In patent US7276519B2, “Thieno[3,2-b]pyridine-6-carbonitriles and thieno[2,3-b]pyridine-5-carbonitriles as protein kinase inhibitors” (Wyeth, priority 2002, dated 2007):
pIC50: −log10 of the molar value. Like-named read-outs stand apart in the source and are kept apart here.

Legend:
[1] = test system: Rat2 fibroblasts stably transformed with v-Src/Hu c-Src fusion gene; assay: Anchorage independent Src-transformed fibroblast proliferation assay; assay type: cell-based, rat; details: for pIC50: read-out: Src cells IC50; for inhibition at 100 µM: Rat2, Table 1, read-out: Src cells % inh at 100 μM
Experimental: Anchorage Independent Src-Transformed Fibroblast Proliferation Assay Rat2 fibroblasts stably transformed with a plasmid containing a CMV promotor controlled v-Src/Hu c-Src fusion gene in which the catalytic domain of human c-Src was inserted in place of the v-Src catalytic domain in the v-Src gene are used for the measurement of src dependent suspension growth. […] Multiple entries for a given compound indicate that it was tested multiple times.

[2] = Rattus norvegicus, Rat2, 120 h, Table 1, suspension growth, MTS readout Day 5
[3] = Table 1, suspension growth, MTS readout Day 5

Row | Compound | pIC50 [1, 2] | melting point | inhibition at 100 µM ([1]; Rattus norvegicus, at 100 μM) [%] | Src cells % inh at 100 μM ([1]; Table 1, at 100 μM) [%] | pIC50 [1, 3] | IC50 ([1]; Rattus norvegicus, Rat2, 120 h, read-out: Src cells IC50 μM, Table 1, suspension growth, MTS readout Day 5) [µM]
1 | COc1cc(Nc2c(C#N)cnc3cc(-c4ccc(C(=O)O)cc4)sc23)c(Cl)cc1Cl [Example 19, 4-{6-Cyano-7-[(2,4-dichloro-5-methoxyphenyl)amino]thieno[3,2-b]pyridine-2-yl]benzoic acid] | < 5.00 | > 300 °C |  |  |  | 
2 | COc1cc(Nc2c(C#N)cnc3cc(-c4ccc(C(N)=O)cc4)sc23)c(Cl)cc1Cl [Example 20, 4-{6-Cyano-7-[(2,4-dichloro-5-methoxyphenyl)amino]thieno[3,2-b]pyridine-2-yl}benzamide] | 6.00 | > 300 °C |  |  |  | 
3 | COc1ccc(C#Cc2cc3ncc(C#N)c(Nc4cc(OC)c(Cl)cc4Cl)c3s2)cc1 [Example 21, 7-[(2,4-Dichloro-5-methoxyphenyl)amino]-2-[(4-methoxyphenyl)ethynyl]thieno[3,2-b]pyridine-6-carbonitrile] | 4.49 | 249 to 250 °C |  |  |  | 
4 | COc1cc(Nc2c(C#N)cnc3cc(C#Cc4ccccn4)sc23)c(Cl)cc1Cl [Example 22, 7-[(2,4-Dichloro-5-methoxyphenyl)amino]-2-(pyridin-2-ylethynyl)thieno[3,2-b]pyridine-6-carbonitrile] | 6.00 | 237 to 239 °C |  |  |  | 
5 | COc1cc(Nc2c(C#N)cnc3cc(C#CCN(C)C)sc23)c(Cl)cc1Cl [Example 23, 7-[(2,4-Dichloro-5-methoxyphenyl)amino]-2-[3-(dimethylamino)prop-1-ynyl]thieno[3,2-b]pyridine-6-carbonitrile] | 5.25 | 164 to 166 °C |  |  |  | 
6 | COc1cc(Nc2c(C#N)cnc3cc(-c4cc5ccccc5o4)sc23)c(Cl)cc1Cl [Example 24, 2-(1-Benzofuran-2-yl)-7-[(2,4-dichloro-5-methoxyphenyl)amino]thieno[3,2-b]pyridine-6-carbonitrile] | 5.42 | 281 to 282 °C |  |  |  | 
7 | COc1cc(Nc2c(C#N)cnc3cc(-c4cccc(C=O)c4)sc23)c(Cl)cc1Cl [Example 25, 7-[(2,4-Dichloro-5-methoxyphenyl)amino]-2-(3-formylphenyl)thieno[3,2-b]pyridine-6-carbonitrile] | 5.96 | 262 to 263 °C |  |  |  | 
8 | COc1cc(Nc2c(C#N)cnc3cc(-c4cccc(CN5CCOCC5)c4)sc23)c(Cl)cc1Cl [Example 26, 7-[(2,4-Dichloro-5-methoxyphenyl)amino]-2-[3-(morpholin-4-ylmethyl)phenyl]thieno[3,2-b]pyridine-6-carbonitrile] | 6.00 | 205 to 207 °C |  |  |  | 
9 | COc1cc(Nc2c(C#N)cnc3sc(-c4ccc(C=O)cc4)cc23)c(Cl)cc1Cl [Example 27, 4-[(2,4-Dichloro-5-methoxyphenyl)amino]-2-(4-formylphenyl)thieno[2,3-b]pyridine-5-carbonitrile] |  | > 240 °C | 19 | 28 |  | 
10 | COc1cc(Nc2c(C#N)cnc3sc(CCCCO)cc23)cc(OC)c1OC [Example 30, 2-(4-Hydroxybutyl)-4-[(3,4,5-trimethoxyphenyl)amino]-thieno[2,3-b]pyridine-5-carbonitrile] | 4.64 | 125 to 127 °C |  |  | 4.60 | 
11 | COc1cc(Nc2c(C#N)cnc3cc(C#C[Si](C)(C)C)sc23)c(Cl)cc1Cl [Example 32, 7-[(2,4-Dichloro-5-methoxyphenyl)amino]-2-[(trimethylsilyl)ethynyl]thieno[3,2-b]pyridine-6-carbonitrile] |  | 169 to 171 °C |  |  |  | 1.5
12 | C#Cc1cc2ncc(C#N)c(Nc3cc(OC)c(Cl)cc3Cl)c2s1 [Example 33, 7-[(2,4-Dichloro-5-methoxyphenyl)amino]-2-ethynylthieno[3,2-b]pyridine-6-carbonitrile] | 6.06 | 198 to 200 °C |  |  |  | 
13 | COc1cc(Nc2c(C#N)cnc3cc(C#Cc4ccncc4)sc23)c(Cl)cc1Cl [Example 34, 7-[(2,4-Dichloro-5-methoxyphenyl)amino]-2-(pyridin-4-ylethynyl)thieno[3,2-b]pyridine-6-carbonitrile] | 5.07 | 221 to 223 °C |  |  |  | 
14 | COc1cc(Nc2c(C#N)cnc3cc(C#Cc4cccnc4)sc23)c(Cl)cc1Cl [Example 35, 7-[(2,4-Dichloro-5-methoxyphenyl)amino]-2-(pyridin-3-ylethynyl)thieno[3,2-b]pyridine-6-carbonitrile] | 6.01 | 249 to 250 °C |  |  |  | 
15 | COc1cc(Nc2c(C#N)cnc3cc(-c4csc(C5OCCO5)c4)sc23)c(Cl)cc1Cl [Example 36, 7-[(2,4-Dichloro-5-methoxyphenyl)amino]-2-[5-(1,3-dioxolan-2-yl)thien-3-yl]thieno[3,2-b]pyridine-6-carbonitrile] | 5.80 | 219 to 221 °C |  |  |  | 
16 | COc1cc(Nc2c(C#N)cnc3cc(-c4csc(C=O)c4)sc23)c(Cl)cc1Cl [Example 37, 7-[(2,4-Dichloro-5-methoxyphenyl)amino]-2-(5-formylthien-3-yl)thieno[3,2-b]pyridine-6-carbonitrile] | 5.96 | 259 to 261 °C |  |  |  | 
17 | COc1cc(Nc2c(C#N)cnc3cc(-c4ccc(CN5CCC(O)CC5)cc4)sc23)c(Cl)cc1Cl [Example 40, 7-[(2,4-Dichloro-5-methoxyphenyl)amino]-2-{4-[(4-hydroxypiperidin-1-yl)methyl]phenyl}thieno[3,2-b]pyridine-6-carbonitrile] | 6.15 | 149 to 150 °C |  |  | 6.37 | 
18 | COc1cc(Nc2c(C#N)cnc3cc(-c4ccc(CO)cc4)sc23)c(Cl)cc1Cl [Example 41, 7-[(2,4-Dichloro-5-methoxyphenyl)amino]-2-[4-(hydroxymethyl)phenyl]thieno[3,2-b]pyridine-6-carbonitrile] | 6.25 | 239 to 240 °C |  |  |  | 
19 | N#Cc1cnc2cc(I)sc2c1Nc1ccc(Oc2ccccc2)cc1 [Example 42, 2-Iodo-7-[(4-phenoxyphenyl)amino]thieno[3,2-b]pyridine-6-carbonitrile] |  | 260 to 262 °C | 5 |  |  | 
20 | N#Cc1cnc2cc(-c3ccc(C=O)cc3)sc2c1Nc1ccc(Oc2ccccc2)cc1 [Example 43, 2-(4-Formylphenyl)-7-[(4-phenoxyphenyl)amino]thieno[3,2-b]pyridine-6-carbonitrile] |  | 230 to 232 °C | 4 |  |  | 
21 | CN1CCN(Cc2ccc(-c3cc4ncc(C#N)c(Nc5ccc(Oc6ccccc6)cc5)c4s3)cc2)CC1 [Example 44, 2-[4-(4-Methylpiperazin-1-ylmethyl)phenyl]-7-[(4-phenoxyphenyl)amino]thieno[3,2-b]pyridine-6-carbonitrile] | 5.62 | 199 to 201 °C |  |  |  | 
22 | N#Cc1cnc2cc(-c3ccc(CN4CCOCC4)cc3)sc2c1Nc1ccc(Oc2ccccc2)cc1 [Example 45, 2-[4-(Morpholin-4-ylmethyl)phenyl]-7-[(4-phenoxyphenyl)amino]thieno[3,2-b]pyridine-6-carbonitrile] |  | 254 to 256 °C | 2 |  |  | 
23 | N#Cc1cnc2cc(-c3ccc(CO)cc3)sc2c1Nc1ccc(Oc2ccccc2)cc1 [Example 46, 2-[4-(Hydroxymethyl)phenyl]-7-[(4-phenoxyphenyl)amino]thieno[3,2-b]pyridine-6-carbonitrile] |  | 225 to 228 °C | 26 |  |  | 
24 | COc1cc(Nc2c(C#N)cnc3cc(I)sc23)cc(OC)c1OC [Example 47, 2-Iodo-7-[(3,4,5-trimethoxyphenyl)amino]thieno[3,2-b]pyridine-6-carbonitrile] |  | 254 to 256 °C | 74 |  |  | 
25 | N#Cc1cnc2cc(Br)sc2c1Nc1ccc(Oc2ccccc2)cc1 [Example 48, 2-Bromo-7-[(4-phenoxyphenyl)amino]thieno[3,2-b]pyridine-6-carbonitrile] |  | 248 to 250 °C | 30 |  |  | 
26 | N#Cc1cnc2cc(/C=C/c3ccncc3)sc2c1Nc1ccc(Oc2ccccc2)cc1 [Example 49, 7-[(4-Phenoxyphenyl)amino]-2-[(E)-2-pyridin-4-ylethenyl]thieno[3,2-b]pyridine-6-carbonitrile] |  | 240 to 241 °C | 14 |  |  | 
27 | COc1cc(Nc2c(C#N)cnc3cc(/C=C/C(=O)OC(C)(C)C)sc23)c(Cl)cc1Cl [Example 50, tert-Butyl (2E)-3-{6-cyano-7-[(2,4-dichloro-5-methoxyphenyl)amino]thieno[3,2-b]pyridin-2-yl}prop-2-enoate] | 5.13 | 224 °C (dec.) |  |  |  | 
28 | COc1cc(Nc2c(C#N)cnc3sc(C#CCN4CCN(C)CC4)cc23)c(Cl)cc1Cl [Example 51, 4-[(2,4-Dichloro-5-methoxyphenyl)amino]-2-[3-(4-methylpiperazin-1-yl)prop-1-ynyl]thieno[2,3-b]pyridine-5-carbonitrile] | 5.00 | 175 °C (dec.) |  |  |  | 
29 | COc1cc(Nc2c(C#N)cnc3sc(C#Cc4cccnc4)cc23)c(Cl)cc1Cl [Example 52, 4-[(2,4-Dichloro-5-methoxyphenyl)amino]-2-(pyridin-3-ylethynyl)thieno[2,3-b]pyridine-5-carbonitrile] |  | 191 °C (dec.) | 61 |  |  | 
30 | COc1cc(Nc2c(C#N)cnc3cc(-c4cnc(C=O)n4C)sc23)c(Cl)cc1Cl [Example 54, 7-[(2,4-Dichloro-5-methoxyphenyl)amino]-2-(2-formyl-1-methyl-1H-imidazol-5-yl)thieno[3,2-b]pyridine-6-carbonitrile] | 5.82 | 225 to 227 °C |  |  | 6.00 | 
